Data from paper PMC8871619, “Pogostone inhibits the activity of CYP3A4, 2C9, and 2E1 in vitro” (Pharmaceutical Biology, 2021).

Tests used:
CYP2E1 [1] = molecular target: T1, CYP2E1 (Homo sapiens, UniProt P05181); assay: Inhibition of CYP2E1 (chlorzoxazone 6-hydroxylation) in human liver microsomes; type: in vitro ADME
T1 construct: Pooled human liver microsomes (HLMs) were purchased from BD Biosciences; tissue BD Biosciences; host or cells: pooled human liver microsomes
Experimental: (§1) The effect of pogostone on the activity of CYP450s was investigated with probe reactions (summarized in Table 1) in HLMs in accordance with previous studies (Zhang et al. [2007], [2020]). All incubations were conducted in triplicate with a volume of 200 μL, containing 100 mM potassium phosphate buffer (pH 7.4), NADPH-generating system (1 mM NADP^+, 10 mM glucose-6-phosphate, 1 U/mL of glucose-6-phosphate dehydrogenase, and 4 mM MgCl2), corresponding probe substrates, HLM, and 100 μM pogostone or positive inhibitors. The concentrations of positive inhibitors were: 10 μM furafylline for CYP1A2, 1 μM ketoconazole for CYP3A4, 10 μM tranylcypromine for CYP2A6, 50 μM clomethiazole for CYP2E1, 10 μM quinidine for CYP2D6, 10 μM sulphaphenazole for CYP2C9, 50 μM tranylcypromine for CYP2C19, and 5 μM montelukast for CYP2C8.
(§2) A 3 min preincubation was performed at 37 °C before the reactions were initiated by the addition of the NADPH-generating system. After the incubation, 100 μL acetonitrile or 10% trichloroacetic (for CYP2A6) was added to terminate the reactions and placed on ice. The mixture was centrifuged at 12,000 rpm for 10 min, and an aliquot (50 μL) of supernatant was transferred for corresponding metabolites analysis with HPLC.
(§3) The effect of pogostone on the activity of CYP450s was first investigated with 100 μM pogostone in HLMs. Then, the CYPs, of which the activity was inhibited by pogostone were incubated with 0, 2.5, 5, 10, 25, 50, and 100 μM pogostone and different probe substrates (20, 40, 60, and 100 μM testosterone for CYP3A4, 5, 10, 15, and 20 μM diclofenac for CYP2C9, or 25, 50, 150, and 250 μM chlorzoxazone for CYP2E1) to obtained the corresponding kinetic parameters, such as IC50 and Ki values.
(§4) The Lineweaver-Burk plots were used to obtain enzyme kinetic parameters by the least-squares linear regression of the inverse substrate concentration versus the inverse velocity. Inhibition data from the experiments that were conducted using multiple compound concentrations were represented by Dixon plots, and inhibition constant (Ki) values were calculated using non-linear regression according to the following equation: V=(VmaxS)/(Km(1+I/Ki)+S) where I is the concentration of the compound, Ki is the inhibition constant, S is the concentration of the substrate and Km is the substrate concentration at half the maximum velocity (Vmax) of the reaction. The mechanism of the inhibition was inspected using the Lineweaver–Burk plots and the enzyme inhibition models. The data comparison was performed using the Student’s t-test and performed using IBM SPSS statistics 20 (SPSS Inc., Chicago, IL, USA).

CYP2E1 [2] = molecular target: T1, CYP2E1; assay: Time-dependent inhibition study of CYP2E1 in human liver microsomes; type: in vitro ADME; settings: 20 μM pogostone, 0-30 min, 1 mg/mL HLMs
Experimental: (§5) The effect of incubation on the inhibitory effect of pogostone was evaluated by incubating for 0, 5, 10, 15, and 30 min at 37 °C. The concentration of pogostone in the time-dependent inhibition study was 20 μM with the 1 mg/mL HLMs. After incubation, an aliquot (20 μL) was transferred to another incubation tube (a final volume of 200 μL) containing an NADPH-generating system and probe substrates whose final concentrations were approximate to Km. Then, further incubations were performed to measure the residual activity. After being incubated for 10 and 30 min, the reactions were terminated by adding a 100 μL acetonitrile internal standard mix and then placed on ice; the corresponding metabolites were determined by HPLC.

CYP3A4 [3] = molecular target: T2, CYP3A4 (Homo sapiens, UniProt P08684); assay: Inhibition of CYP3A4 (testosterone 6β-hydroxylation) in human liver microsomes; type: in vitro ADME
T2 construct: Pooled human liver microsomes (HLMs) were purchased from BD Biosciences; tissue BD Biosciences; host or cells: pooled human liver microsomes
Experimental: as §1, §2, §3, §4

CYP2C9 [4] = molecular target: T3, CYP2C9 (Homo sapiens, UniProt P11712); assay: Time-dependent inhibition study of CYP2C9 in human liver microsomes; type: in vitro ADME; settings: 20 μM pogostone, 0-30 min, 1 mg/mL HLMs
T3 construct: Pooled human liver microsomes (HLMs) were purchased from BD Biosciences; tissue BD Biosciences; host or cells: pooled human liver microsomes
Experimental: as §5

[5] = parameters: method as in Chen et al. [2013]; settings: rats, oral administration, 5 mg/kg pogostone; ref Chen et al. [2013]; cited from earlier work
CYP3A4 [6] = molecular target: T2, CYP3A4; assay: Time-dependent inhibition study of CYP3A4 in human liver microsomes; type: in vitro ADME
Experimental: as §5
Further experiments were performed to quantify the time-dependent inhibition by the KI and Kinact values. The incubation was conducted with a higher substrate concentration, which was about 4-fold to Km and 0, 2, 5, 10, 20, and 50 μM pogostone for 0, 5, 10, 15, and 30 min. A two-step incubation scheme was performed as described above.

CYP2C9 [7] = molecular target: T3, CYP2C9; assay: Inhibition of CYP2C9 (diclofenac 4′-hydroxylation) in human liver microsomes; type: in vitro ADME
Experimental: as §1, §2, §3, §4

[8] = 100 μM pogostone, HLMs, p < 0.05
[9] = HLMs, 0-50 μM pogostone, 0-30 min preincubation, substrate about 4-fold Km

T1 sequence (P05181 whole entry): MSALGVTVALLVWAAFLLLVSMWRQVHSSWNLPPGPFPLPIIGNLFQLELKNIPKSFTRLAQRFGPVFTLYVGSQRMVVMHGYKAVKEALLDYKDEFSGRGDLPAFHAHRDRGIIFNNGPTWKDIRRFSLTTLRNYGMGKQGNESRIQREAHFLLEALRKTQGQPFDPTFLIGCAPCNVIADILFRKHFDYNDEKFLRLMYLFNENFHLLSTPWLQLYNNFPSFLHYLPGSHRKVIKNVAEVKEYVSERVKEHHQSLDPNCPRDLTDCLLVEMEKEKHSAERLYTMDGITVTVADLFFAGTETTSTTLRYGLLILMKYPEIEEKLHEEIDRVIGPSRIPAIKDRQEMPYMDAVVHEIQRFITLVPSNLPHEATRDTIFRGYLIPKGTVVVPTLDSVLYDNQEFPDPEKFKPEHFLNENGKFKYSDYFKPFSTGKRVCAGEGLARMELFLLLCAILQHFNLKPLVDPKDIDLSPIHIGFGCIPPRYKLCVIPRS
T3 sequence (P11712 whole entry): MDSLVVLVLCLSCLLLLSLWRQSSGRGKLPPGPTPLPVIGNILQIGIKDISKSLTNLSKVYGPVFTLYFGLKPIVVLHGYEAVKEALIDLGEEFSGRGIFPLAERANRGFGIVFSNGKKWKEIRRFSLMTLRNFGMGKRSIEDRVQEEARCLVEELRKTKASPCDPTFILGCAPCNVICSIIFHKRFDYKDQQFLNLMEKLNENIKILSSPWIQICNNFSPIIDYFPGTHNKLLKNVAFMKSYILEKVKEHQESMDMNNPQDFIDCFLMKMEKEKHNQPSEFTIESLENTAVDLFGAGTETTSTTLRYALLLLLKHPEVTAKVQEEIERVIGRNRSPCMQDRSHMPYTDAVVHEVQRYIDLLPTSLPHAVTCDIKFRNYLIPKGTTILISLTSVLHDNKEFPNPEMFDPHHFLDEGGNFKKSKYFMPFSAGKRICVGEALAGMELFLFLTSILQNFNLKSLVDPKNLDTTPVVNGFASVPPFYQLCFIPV
T2 sequence (P08684 whole entry): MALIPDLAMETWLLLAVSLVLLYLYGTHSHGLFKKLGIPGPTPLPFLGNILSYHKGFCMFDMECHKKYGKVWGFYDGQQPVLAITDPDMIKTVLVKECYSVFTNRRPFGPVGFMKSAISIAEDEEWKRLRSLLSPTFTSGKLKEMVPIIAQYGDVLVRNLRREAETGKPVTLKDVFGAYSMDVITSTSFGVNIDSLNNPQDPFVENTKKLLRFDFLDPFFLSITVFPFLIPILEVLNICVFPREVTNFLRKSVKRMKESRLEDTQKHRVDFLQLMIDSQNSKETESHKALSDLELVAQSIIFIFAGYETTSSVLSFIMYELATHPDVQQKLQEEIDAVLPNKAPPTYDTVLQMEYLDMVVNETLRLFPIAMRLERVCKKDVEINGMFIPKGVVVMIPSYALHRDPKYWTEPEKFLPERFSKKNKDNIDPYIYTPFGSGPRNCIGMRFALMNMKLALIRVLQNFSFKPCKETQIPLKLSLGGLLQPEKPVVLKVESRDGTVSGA

Activity of CYP2E1 compared with negative control (CYP2E1 [1]; [8]): significantly inhibited | IC50 (CYP2E1 [1]; HLMs, 0-100 μM pogostone, chlorzoxazone substrate): 14.9 µM | Ki (CYP2E1 [1]; HLMs, Lineweaver-Burk, 25-250 μM chlorzoxazone): 7.67 µM | Type of inhibition of CYP2E1 (CYP2E1 [1]; Lineweaver-Burk analysis): competitive | Effect of incubation time on inhibition of CYP2E1 (CYP2E1 [2]): no significant effect | Activity of CYP3A4 compared with negative control (CYP3A4 [3]; [8]): significantly inhibited | IC50 (CYP3A4 [3]; HLMs, 0-100 μM pogostone, testosterone substrate): 11.4 µM | Ki (CYP3A4 [3]; HLMs, Lineweaver-Burk, 20-100 μM testosterone): 5.69 µM | Type of inhibition of CYP3A4 (CYP3A4 [3]; Lineweaver-Burk analysis): non-competitive | Effect of incubation time on inhibition of CYP2C9 (CYP2C9 [4]): no significant effect | Effect of incubation time on inhibition of CYP3A4 (CYP3A4 [6]; 20 μM pogostone, 0-30 min, 1 mg/mL HLMs): time-dependent | KI value of CYP3A4 (time-dependent inhibition) (CYP3A4 [6]; [9]): 5.86 µM | Kinact value of CYP3A4 (time-dependent inhibition) (CYP3A4 [6]; [9]): 0.056 min⁻¹ | Activity of CYP2C9 compared with negative control (CYP2C9 [7]; [8]): significantly inhibited | IC50 (CYP2C9 [7]; HLMs, 0-100 μM pogostone, diclofenac substrate): 12.1 µM | Ki (CYP2C9 [7]; HLMs, Lineweaver-Burk, diclofenac): 6.46 µM | Type of inhibition of CYP2C9 (CYP2C9 [7]; Lineweaver-Burk analysis): competitive
SMILES: Cc1cc(O)c(C(=O)CCC(C)C)c(=O)o1 [pogostone, Pogostone]
Cmax [5]: 28990 ng/mL
